The results in this text go back to patent US20230391776A1, “AMIDE OXAZOLE COMPOUND” (MEDSHINE DISCOVERY INC., priority 2020, published 2023).

“And” between values parts separate entries of the source, which are not always exact repeats. Equal values may be shown once.

Test [1] concerns TNF-α secretion induced by LPS. In words: TNF-α secretion model induced by LPS in SD rats. The note with it: 25 mpk oral gavage 0.5 h before 1 mg/kg LPS i.p., plasma 2 hours after modeling, p<0.01. The format is in vivo. On the procedure: a) The pharmacokinetic effect of compound WX009 on TNF-α secretion model induced by LPS in SD rats.
Female SD rats were randomly divided into four groups according to the animal weight, namely Sham group, Model group and Dexamethasone (dosage: 0.5 mpk, DEX-0.5 mpk) group and tested drug WX009 (dosage: 25 mpk, WX009-25 mpk) group, with 6-9 animals in each group. The model was established by a single intraperitoneal injection of 1 mg/kg LPS. Dexamethasone and tested drug were given orally by gavage 0.5 h before modeling. After modeling for 2 hours, the animals were weighed, and all the experimental animals were anesthetized by intraperitoneal injection of pentobarbital sodium. An anticoagulant whole blood was collected through sublingual vein, anticoagulant: EDTA-K2, the plasma was separated, and the plasma volume was about 200 μL, which was used to detect the content of inflammatory factor, TNF-α.

In test [2] the test system is human diffuse large B lymphoma TMD8 cell subcutaneous xenograft. In words: TMD8 subcutaneous xenograft tumor model (WX009 study). It counts as in vivo, SCID mouse. As to conditions: 18th day after administration. The text has this: The formula for calculating the tumor inhibition rate TGI (%)=[1−(average tumor volume at the end of administration in a treatment group-average tumor volume at the beginning of administration in the treatment group))/(average tumor volume at the end of treatment in solvent control group-average tumor volume at the beginning of treatment in solvent control group)]×100%.

The test system is the same in test [3]. The experiment in a line: TMD8 subcutaneous xenograft tumor model (WX017 and WX027 study). The note with it: 11th day after administration.
Experimental: a) TMD8 cells were cultured in RPMI-1640 medium containing 10% FBS and maintained in a 37° C. saturated humidity incubator with 5% CO2. TMD8 cells in logarithmic period were collected, resuspended in RPMI-1640 basal medium, and Matrigel was added at 1:1, and the cell concentration was adjusted to 4×10^7/mL. Under aseptic conditions, 0.1 mL of cell suspension was inoculated under the skin of the right back of SCID mice, and the inoculation concentration was 4×10^6/0.1 mL/mouse.
When the tumor grew to a certain size, the animals with too large, too small or irregular tumor shape were excluded, and the animals with tumor volume of 108.76-188.11 mm^3 were selected. According to the tumor volume, the animals were divided into 10 groups by random block method, with 6 mice in each group, and the average tumor volume was about 152.11 mm^3. The health status and death of animals were monitored every day, and routine examinations included observing the effects of tumor growth and drug treatment on daily behaviors of animals, such as behavioral activities, food intake and water intake, weight change (weight was measured twice a week), tumor size (tumor volume was measured twice a week), appearance signs or other abnormal conditions.
The formula for calculating tumor volume (TV) was: 1/2×a×b^2, where a and b were the measured length and width of the tumor respectively. The formula for calculating the tumor inhibition rate TGI (%)=[1−(average tumor volume at the end of administration in a treatment group-average tumor volume at the beginning of administration in the treatment group))/(average tumor volume at the end of treatment in solvent control group-average tumor volume at the beginning of treatment in solvent control group)]×100%.
In this study, the experimental data were all expressed by Mean±SEM. Statistical analysis was based on the data of RTV at the end of the experiment and analyzed by IBM SPSS Statistics software. T test was used to analyze the comparison between two groups, and one-way ANOVA was used to analyze the comparison between three or more groups. If the variance was even (there was no significant difference in F value), Tukey's method was used to analyze it, and if the variance was uneven (there was significant difference in F value), Games-Howell method was used to test it. p<0.05 was deemed to a significant difference.

Regarding `Cc1cc(-c2nc(C(=O)Nc3cn4cc(C(C)(C)O)nc4cc3-c3ccccc3)co2)ccn1` [WX009], the “TNF-α content in animal plasma compared with the Model group” value in test [1] is “significantly reduce”. In addition, the TGI was 86% and 86.28% in test [2] (5 mg/kg BID PO); 85.10% in test [2] (10 mg/kg BID PO); 96.55% in test [2] (20 mg/kg BID PO).
For `CC(C)(O)c1cn2cc(NC(=O)c3coc(-c4ccnc(N)c4)n3)c(-c3ccccc3)cc2n1` [WX017], the TGI in test [3] (3 mg/kg BID PO) stood at 86%; in test [3] (10 mg/kg BID PO), 100%; in test [3] (20 mg/kg BID PO) it was 114%.
On to `CC(C)(O)c1cn2cc(NC(=O)c3coc(-c4ccnc(N)c4F)n3)c(-c3ccccc3)cc2n1` [WX027], for which the figures for the TGI in test [3] (3 mg/kg BID PO), in test [3] (10 mg/kg BID PO) and in test [3] (20 mg/kg BID PO) were 78%, 90% and 104%, respectively.
